Results: US11970497B2, “Tricyclic AKR1C3 dependent KARS inhibitors” (Novartis AG, priority 2019, dated 2024)

Columns and labels:
[1] = tested on: H460 (NRF2 pathway mutant cell line with high AKR1C3 expression); test: In vitro cell proliferation assay (CellTiter-Glo), H460; type: cell-based; settings: Homo sapiens, NCI-H460, 72 h; H460 cells, 3 days, CellTiter-Glo, top concentration 10 μM; read-out: H460 Qualified absolute AC50
Method in brief: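 Cells seeded day 1 (H460 800/well, Hara 2000/well) in RPMI-1640 with 10% FBS; compounds added day 2 as 8-point 1:5 dilutions from 10 μM top. After 3 days at 37 °C, viability read by CellTiter-Glo luminescence, normalized to DMSO and MG132 (30 μM) controls to derive percentage activity and AC50.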

[2] = tested on: Hara (NRF2 pathway wild type cell line with low AKR1C3 expression); test: In vitro cell proliferation assay (CellTiter-Glo), Hara; type: cell-based; settings: 72 h; Hara cells, 3 days, CellTiter-Glo, top concentration 10 μM; read-out: HARA Qualified absolute AC50
Text: Cellular Proliferation Assay to Assess Compounds Activity in H460 (NRF2 Pathway Mutant Cell Line with High AKR1C3 Expression) and Hara (NRF2 Pathway Wild Type Cell Line with Low AKR1C3 Expression).
The cell lines A549 and H460 are NRF2 pathway mutant and specifically contain genetic alterations in KEAP1 (A549: G333C, H460: D236H) (Singh A. et al., 2006 PLoS Medicine 3(10) e420). In these cell lines the NRF2 pathway is constitutively active and these cells express high levels of NRF2 protein and NRF2 pathway target gene AKR1C3. […] They have low AKR1C3 expression.
In Vitro Cell Proliferation Assay
Day 1, for H460 800 cells/well or 40 μL of 2×10^4 cells/mL and for Hara 2000 cells/well or 40 μL of 5×10^4 cells/mL medium (RPMI-1640 supplemented with 10% fetal bovine serum and 1% penicillin/streptomycin) were seeded into 384-well tissue culture plates. Day 2, compounds were serially diluted 1:5 to generate 8 point dose response curves and added to cells for a final top concentration of 10 μM. DMSO (1%) control and MG132 (30 μM) controls are added in columns 23 and 24 respectively on each plate for positive and negative control. After incubation for 3 days at 37° C./5% CO2, 30 μl of CellTiter-Glo reagent (Promega) was added and the plates were incubated for 10 min on plate shaker. The amount of luminescence was determined using a Perkin Elmer Envision plate reader. CellTiter-Glo luminescence values of cells treated with DMSO and MG132 controls were used to normalize the data and calculate percentage activity and AC50s of compounds using the Helios Software suite.

Row | SMILES | AC50 [1] | AC50 [2]
1 | O=C(NC1COC1)c1cc(CNC(=O)N2CCC3(CC2)CC(=O)c2cc(F)ccc2N3)ccc1F [Example 105, 6′-fluoro-N-(4-fluoro-3-(oxetan-3-ylcarbamoyl)benzyl)-4′-oxo-3′,4′-dihydro-1′H-spiro[piperidine-4,2′-quinoline]-1-carboxamide] | 0.58 µM | > 10 µM
2 | Nc1cc(CNC(=O)N2CCC3(CC2)CC(=O)c2cc(F)ccc2N3)ccc1F [Example 95, N-(3-amino-4-fluorobenzyl)-6′-fluoro-4′-oxo-3′,4′-dihydro-1′H-spiro[piperidine-4,2′-quinoline]-1-carboxamide] | 0.485 µM | > 10 µM
3 | CN1c2ccc(F)cc2C(=O)CC12CCN(C(=O)NCc1ccc(F)c(C(=O)NCCO)c1)CC2 [Example 82, 6′-fluoro-N-(4-fluoro-3-((2-hydroxyethyl)carbamoyl)benzyl)-1′-methyl-4′-oxo-3′,4′-dihydro-1′H-spiro[piperidine-4,2′-quinoline]-1-carboxamide] | 0.356 µM | > 10 µM
4 | Cn1cc(CNC(=O)N2CCC3(CC2)CC(=O)c2cc(F)ccc2N3)cn1 [Example 145, 6′-fluoro-N-((1-methyl-1H-pyrazol-4-yl)methyl)-4′-oxo-3′,4′-dihydro-1′H-spiro[piperidine-4,2′-quinoline]-1-carboxamide] | 3.5 µM | 6.05 µM
5 | O=C1CC2(CCN(C(=O)NCc3cc(OCCO)c(F)cc3F)CC2)Nc2ccc(F)cc21 [Example 71, N-(2,4-difluoro-5-(2-hydroxyethoxy)benzyl)-6′-fluoro-4′-oxo-3′,4′-dihydro-1′H-spiro[piperidine-4,2′-quinoline]-1-carboxamide] | 0.265 µM | > 10 µM
6 | CCN1c2ccc(F)cc2C(=O)CC12CCN(C(=O)NCc1ccc(F)c(C(N)=O)c1)CC2 [Example 13, N-(3-carbamoyl-4-fluorobenzyl)-1′-ethyl-6′-fluoro-4′-oxo-3′,4′-dihydro-1′H-spiro[piperidine-4,2′-quinoline]-1-carboxamide] | 0.025 µM | 7.95 µM
7 | NS(=O)(=O)c1cccc(CNC(=O)N2CCC3(CC2)CC(=O)c2cc(F)ccc2N3)c1 [Example 74, 6′-fluoro-4′-oxo-N-(3-sulfamoylbenzyl)-3′,4′-dihydro-1′H-spiro[piperidine-4,2′-quinoline]-1-carboxamide] | 0.305 µM | > 10 µM
8 | CCN1c2ccc(F)cc2C(=O)CC12CCN(C(=O)NCc1cc(NCCO)c(F)cc1F)CC2 [Example 18, N-(2,4-difluoro-5-((2-hydroxyethyl)amino)benzyl)-1′-ethyl-6′-fluoro-4′-oxo-3′,4′-dihydro-1′H-spiro[piperidine-4,2′-quinoline]-1-carboxamide] | 0.03 µM | 4.19 µM
9 | COCCNc1cc(CNC(=O)N2CCC3(CC2)CC(=O)c2cc(F)ccc2N3)ccc1F [Example 99, 6′-fluoro-N-(4-fluoro-3-((2-methoxyethyl)amino)benzyl)-4′-oxo-3′,4′-dihydro-1′H-spiro[piperidine-4,2′-quinoline]-1-carboxamide] | 0.507 µM | > 10 µM
10 | CN1c2ccc(F)cc2C(=O)CC12CCN(C(=O)NCc1ccc(F)c(N)c1F)CC2 [Example 42, N-(3-amino-2,4-difluorobenzyl)-6′-fluoro-1′-methyl-4′-oxo-3′,4′-dihydro-1′H-spiro[piperidine-4,2′-quinoline]-1-carboxamide] | 0.094 µM | > 10 µM
11 | CN1c2ccc(F)cc2C(=O)CC12CCN(C(=O)NCc1ccc(N)cc1)CC2 [Example 76, N-(4-aminobenzyl)-6′-fluoro-1′-methyl-4′-oxo-3′,4′-dihydro-1′H-spiro[piperidine-4,2′-quinoline]-1-carboxamide] | 0.309 µM | > 10 µM
12 | CC(O)c1cc(CNC(=O)N2CCC3(CC2)CC(=O)c2cc(F)ccc2N3)ccc1F (stereo not drawn) [Example 135, 6′-fluoro-N-(4-fluoro-3-(1-hydroxyethyl)benzyl)-4′-oxo-3′,4′-dihydro-1′H-spiro[piperidine-4,2′-quinoline]-1-carboxamide] | 1.86 µM | > 10 µM
